According to ChEMBL document CHEMBL1137771, “Non-nucleoside inhibitors of HCV polymerase NS5B. Part 2: Synthesis and structure-activity relationships of benzothiazine-substituted quinolinediones” (Bioorg Med Chem Lett, 2009):
Converted amounts (≈) assume the structure as drawn. Values belong to the compound of their own block, whether it stands above or below them.

What was measured:
[1] = Solubility of the compound; assay type: physicochemical
Hepatitis C virus [2] = assay: Inhibition of HCV 1b isolate BK NS5B Cdelta21 polymerase expressed in Escherichia coli; parameters: species or system Hepatitis C virus subtype 1b
[3] = Oral bioavailability in rat; assay type: ADME, organism-based; settings: in vivo
[4] = Clearance in dog at 1 mg/kg, iv; assay type: ADME, organism-based, Canis lupus familiaris; parameters: dose 1 mg/kg, route intravenous; settings: in vivo
[5] = AUC in male rat at 10 mg/kg, po after 7 days; assay type: ADME, organism-based; parameters: dose 10 mg/kg, route oral; settings: plasma
[6] = Cmin (24 hrs) in male rat at 100 mg/kg, po after 1 day; assay type: ADME, organism-based; parameters: dose 100 mg/kg, route oral; settings: in vivo, read-out: Cmin
[7] = Half life in dog at 1 mg/kg, iv; assay type: ADME, organism-based, Canis lupus familiaris; parameters: dose 1 mg/kg, route intravenous; settings: in vivo
Hepatitis C virus [8] = assay: Antiviral activity against HCV genotype 1b isolate con1 infected in human 2209-23 cells assessed as inhibition of [3H]thymidine incorporation into DNA by scintillation proximity assay in presence of 5% fetal bovine serum; assay type: functional, organism-based, Hepacivirus hominis; settings: isolate Con1, 2209-23
[9] = Cmax in female dog at 2 mg/kg administered intraduodenally as cannula dose; assay type: ADME, organism-based, Canis lupus familiaris; parameters: dose 2 mg/kg, route intraduodenal; settings: in vivo
[10] = Cmin (24 hrs) in female rat at 500 mg/kg, po after 1 day; assay type: ADME, organism-based; parameters: dose 500 mg/kg, route oral; settings: in vivo, read-out: Cmin
Hepatocyte = assay: Metabolic stability in rat hepatocytes assessed per 10^6 cells; assay type: ADME, cell-based
[11] = AUC in female rat at 100 mg/kg, po after 7 days; assay type: ADME, organism-based; parameters: dose 100 mg/kg, route oral; settings: plasma
[12] = AUC in female rat at 500 mg/kg, po after 7 days; assay type: ADME, organism-based; parameters: dose 500 mg/kg, route oral; settings: plasma
[13] = Cmax in male rat at 100 mg/kg, po after 7 days; assay type: ADME, organism-based; parameters: dose 100 mg/kg, route oral; settings: in vivo
[14] = Cytotoxicity against human 2209-23 cells by WST1 assay; assay type: cell-based
[15] = Ratio of drug level from liver to plasma in po dosed rat after 24 hrs; assay type: ADME, organism-based
Caco-2 = assay: Efflux ratio of permeability from […] side in human Caco-2 cells after 21 days; assay type: ADME, cell-based; settings: caco-2, 504 h
[16] = Cmax in female dog at 2 mg/kg, po dosed as normal particles; assay type: ADME, organism-based, Canis lupus familiaris; parameters: dose 2 mg/kg, route oral; settings: in vivo
[17] = Half life in dog at 1 mg/kg, po; assay type: ADME, organism-based, Canis lupus familiaris; parameters: dose 1 mg/kg, route oral; settings: in vivo
[18] = Cmax in female rat at 500 mg/kg, po after 1 day; assay type: ADME, organism-based; parameters: dose 500 mg/kg, route oral; settings: in vivo
Hepatitis C virus [19] = assay: Inhibition of HCV genotype 1b isolate con1 NS5B polymerase assessed as incorporation of radiolabeled nucleotide into RNA product; parameters: species or system Hepacivirus hominis
[20] = Drug concentration in rat liver at 5 mg/kg, po after 2 hrs; assay type: ADME, organism-based; parameters: dose 5 mg/kg, route oral; settings: read-out: Drug uptake
[21] = AUC in male rat at 100 mg/kg, po after 7 days; assay type: ADME, organism-based; parameters: dose 100 mg/kg, route oral; settings: plasma
[22] = Cmax in female dog at 2 mg/kg, po dosed as nanosized particles; assay type: ADME, organism-based, Canis lupus familiaris; parameters: dose 2 mg/kg, route oral; settings: in vivo
[23] = Metabolic stability in dog liver microsomes; assay type: ADME, Canis lupus familiaris, Microsome; settings: read-out: Stability
[24] = AUC in male rat at 500 mg/kg, po after 7 days; assay type: ADME, organism-based; parameters: dose 500 mg/kg, route oral; settings: plasma
[25] = Cmin (24 hrs) in male rat at 500 mg/kg, po after 1 day; assay type: ADME, organism-based; parameters: dose 500 mg/kg, route oral; settings: in vivo, read-out: Cmin
[26] = Drug concentration in rat liver at 5 mg/kg, po after 6 hrs; assay type: ADME, organism-based; parameters: dose 5 mg/kg, route oral; settings: read-out: Drug uptake
[27] = Cmax in male rat at 10 mg/kg, po after 1 day; assay type: ADME, organism-based; parameters: dose 10 mg/kg, route oral; settings: in vivo
[28] = Cmax in rat at 2 mg/kg, iv; assay type: ADME, organism-based; parameters: dose 2 mg/kg, route intravenous; settings: in vivo
[29] = Cmax in male rat at 500 mg/kg, po after 1 day; assay type: ADME, organism-based; parameters: dose 500 mg/kg, route oral; settings: in vivo
[30] = Cmax in female rat at 10 mg/kg, po after 7 days; assay type: ADME, organism-based; parameters: dose 10 mg/kg, route oral; settings: in vivo
[31] = Cmax in male rat at 100 mg/kg, po after 1 day; assay type: ADME, organism-based; parameters: dose 100 mg/kg, route oral; settings: in vivo
[32] = Cmax in female rat at 100 mg/kg, po after 7 days; assay type: ADME, organism-based; parameters: dose 100 mg/kg, route oral; settings: in vivo
[33] = AUC (0 to 24 hrs) in male rat at 500 mg/kg, po after 1 day; assay type: ADME, organism-based; parameters: time < 24 hr, dose 500 mg/kg, route oral; settings: plasma
[34] = AUC in rat at 2 mg/kg, iv; assay type: ADME, organism-based; parameters: dose 2 mg/kg, route intravenous; settings: plasma
[35] = AUC (0 to 24 hrs) in male rat at 100 mg/kg, po after 1 day; assay type: ADME, organism-based; parameters: time < 24 hr, dose 100 mg/kg, route oral; settings: plasma
[36] = Cmax in male rat at 10 mg/kg, po after 7 days; assay type: ADME, organism-based; parameters: dose 10 mg/kg, route oral; settings: in vivo
[37] = AUC (0 to 24 hrs) in male rat at 10 mg/kg, po after 1 day; assay type: ADME, organism-based; parameters: time < 24 hr, dose 10 mg/kg, route oral; settings: plasma
[38] = AUC (0 to 24 hrs) in female rat at 500 mg/kg, po after 1 day; assay type: ADME, organism-based; parameters: time < 24 hr, dose 500 mg/kg, route oral; settings: plasma
Hepatitis C virus [39] = assay: Antiviral activity against HCV genotype 1b isolate con1 infected in human 2209-23 cells assessed as inhibition of [3H]thymidine incorporation into DNA by scintillation proximity assay in presence of 40% human serum albumin; assay type: functional, organism-based, Hepacivirus hominis; settings: isolate Con1, 2209-23
[40] = Clearance in rat at 2 mg/kg, iv; assay type: ADME, organism-based; parameters: dose 2 mg/kg, route intravenous; settings: in vivo
[41] = AUC in dog at 1 mg/kg, po; assay type: ADME, organism-based, Canis lupus familiaris; parameters: dose 1 mg/kg, route oral; settings: plasma
[42] = AUC (0 to 24 hrs) in female rat at 100 mg/kg, po after 1 day; assay type: ADME, organism-based; parameters: time < 24 hr, dose 100 mg/kg, route oral; settings: plasma
[43] = Half life in rat at 2 mg/kg, iv; assay type: ADME, organism-based; parameters: dose 2 mg/kg, route intravenous; settings: in vivo
[44] = AUC in dog at 1 mg/kg, iv; assay type: ADME, organism-based, Canis lupus familiaris; parameters: dose 1 mg/kg, route intravenous; settings: plasma
[45] = Toxicity in rat assessed as adverse effects after 7 days; assay type: organism-based; settings: in vivo
[46] = AUC in female rat at 10 mg/kg, po after 7 days; assay type: ADME, organism-based; parameters: dose 10 mg/kg, route oral; settings: plasma
[47] = Cmax in female rat at 10 mg/kg, po after 1 day; assay type: ADME, organism-based; parameters: dose 10 mg/kg, route oral; settings: in vivo
[48] = Metabolic stability in rat liver microsomes; assay type: ADME, Microsome; settings: read-out: Stability
[49] = Cmax in male rat at 500 mg/kg, po after 7 days; assay type: ADME, organism-based; parameters: dose 500 mg/kg, route oral; settings: in vivo
[50] = AUC (0 to 24 hrs) in female rat at 10 mg/kg, po after 1 day; assay type: ADME, organism-based; parameters: time < 24 hr, dose 10 mg/kg, route oral; settings: plasma
Hepatitis C virus [51] = assay: Ratio of EC50 for HCV genotype 1b isolate con1 in presence of human serum albumin to EC50 for HCV genotype 1b isolate con1 in presence of fetal bovine serum; assay type: functional, Hepacivirus hominis
serum albumin = serum albumin (Homo sapiens, UniProt P02768); assay: Binding affinity to human serum albumin; assay type: ADME; settings: read-out: PB (converted)
serum albumin, sequence (P02768 whole entry): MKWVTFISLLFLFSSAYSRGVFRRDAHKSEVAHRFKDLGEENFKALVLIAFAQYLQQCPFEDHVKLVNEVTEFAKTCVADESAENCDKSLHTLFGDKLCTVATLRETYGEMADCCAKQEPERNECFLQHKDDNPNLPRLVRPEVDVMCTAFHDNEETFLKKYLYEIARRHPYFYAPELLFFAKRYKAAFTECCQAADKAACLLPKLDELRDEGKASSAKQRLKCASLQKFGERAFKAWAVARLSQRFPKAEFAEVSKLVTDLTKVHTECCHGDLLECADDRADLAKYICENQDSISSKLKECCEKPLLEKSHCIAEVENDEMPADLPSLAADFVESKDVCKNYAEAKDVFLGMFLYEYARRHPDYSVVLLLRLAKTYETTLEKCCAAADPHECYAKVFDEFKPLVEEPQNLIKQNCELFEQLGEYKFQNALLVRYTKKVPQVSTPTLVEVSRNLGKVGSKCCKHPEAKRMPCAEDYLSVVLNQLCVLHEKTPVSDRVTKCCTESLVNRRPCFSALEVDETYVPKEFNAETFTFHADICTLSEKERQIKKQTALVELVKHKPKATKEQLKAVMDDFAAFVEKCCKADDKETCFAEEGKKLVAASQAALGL

[52] = Cmax in rat at 5 mg/kg, po; assay type: ADME, organism-based; parameters: dose 5 mg/kg, route oral; settings: in vivo
[53] = Cmax in dog at 1 mg/kg, iv; assay type: ADME, organism-based, Canis lupus familiaris; parameters: dose 1 mg/kg, route intravenous; settings: in vivo
[54] = Cmin (24 hrs) in female rat at 100 mg/kg, po after 1 day; assay type: ADME, organism-based; parameters: dose 100 mg/kg, route oral; settings: in vivo, read-out: Cmin
[55] = Cmax in female rat at 100 mg/kg, po after 1 day; assay type: ADME, organism-based; parameters: dose 100 mg/kg, route oral; settings: in vivo
[56] = Cmax in dog at 1 mg/kg, po; assay type: ADME, organism-based, Canis lupus familiaris; parameters: dose 1 mg/kg, route oral; settings: in vivo
[57] = Cmax in female rat at 500 mg/kg, po after 7 days; assay type: ADME, organism-based; parameters: dose 500 mg/kg, route oral; settings: in vivo

- solubility [1]: < 1 µg/mL
- IC50 (Hepatitis C virus [2]): 30 nM
- bioavailability [3]: 10%
Compound: O=c1c(C2=Nc3ccccc3S(=O)(=O)N2)c(O)c2cc(F)ccc2n1CCC1CC1

- clearance [4]: 19 mL/min/kg
- AUC at 168 h [5]: 34.4 ng·h/mL
- concentration at 24 h [6]: 2.8 ng/mL
- half-life [7]: 1.6 h
- EC50 (Hepatitis C virus [8]): 23 nM
- Cmax [9]: < 15 ng/mL
- concentration at 24 h [10]: 1.3 ng/mL
- Stability (Hepatocyte): 1.6 µL/min
- AUC at 168 h [11]: 299 ng·h/mL
- AUC at 168 h [12]: 1470 ng·h/mL
- Cmax [13]: 21.1 ng/mL
- Kp at 24 h [15]: 10
- Ratio (Caco-2): 3.78
- Cmax [16]: < 15 ng/mL
- half-life [17]: 1.2 h
- Cmax [18]: 48.2 ng/mL
- IC50 (Hepatitis C virus [19]): 13 nM
- concentration at 2 h [20]: 151 ng/g
- AUC at 168 h [21]: 322 ng·h/mL
- Cmax [22]: < 15 ng/mL
- microsomal CLint [23]: 24 µL/min/mg
- AUC at 168 h [24]: 1910 ng·h/mL
- concentration at 24 h [25]: 11.3 ng/mL
- concentration at 6 h [26]: 22 ng/g
- Cmax [27]: 2.06 ng/mL
- Cmax [28]: 130 ng/mL
- Cmax [29]: 93.2 ng/mL
- Cmax [30]: 2.8 ng/mL
- Cmax [31]: 20.4 ng/mL
- Cmax [32]: 15.8 ng/mL
- AUC(0-t) at 24 h [33]: 821 ng·h/mL
- AUC [34]: 158 ng·h/mL
- AUC(0-t) at 24 h [35]: 223 ng·h/mL
- Cmax [36]: 2.76 ng/mL
- AUC(0-t) at 24 h [37]: 25.4 ng·h/mL
- AUC(0-t) at 24 h [38]: 701 ng·h/mL
- EC50 (Hepatitis C virus [39]): 88 nM
- clearance [40]: 186 mL/min/kg
- AUC [41]: 34.8 ng·h/mL
- AUC(0-t) at 24 h [42]: 116 ng·h/mL
- solubility [1]: 6.7 µg/mL (≈ 11.7 µM)
- half-life [43]: 1.1 h
- AUC [44]: 954 ng·h/mL
- AUC at 168 h [46]: 21.2 ng·h/mL
- Cmax [47]: 3.26 ng/mL
- microsomal CLint [48]: 126 µL/min/mg
- Cmax [49]: 152 ng/mL
- AUC(0-t) at 24 h [50]: 25.6 ng·h/mL
- fraction unbound (serum albumin): 0.002
- Cmax [52]: 2 ng/mL
- Cmax [53]: 4350 ng/mL
- concentration at 24 h [54]: 2.1 ng/mL
- Cmax [55]: 13 ng/mL
- Cmax [56]: 10.6 ng/mL
- Cmax [57]: 89.3 ng/mL
Compound: Cc1cc(Cn2c(=O)c(C3=CS(=O)(=O)c4cc(NS(C)(=O)=O)ccc4N3)c(O)c3cc(F)ccc32)ccc1F
- CC50 [14]: > 50000 nM
- NOAEL at 168 h [45]: > 500 mg/kg/day
- fold change (FC) (Hepatitis C virus [51]): 9.2

- EC50 (Hepatitis C virus [8]): 103 nM
- IC50 (Hepatitis C virus [19]): 8 nM
- EC50 (Hepatitis C virus [39]): 2780 nM
Compound: CS(=O)(=O)Nc1ccc2c(c1)S(=O)(=O)C=C(c1c(O)c3cccc(F)c3n(Cc3ccc(F)cc3)c1=O)N2
- CC50 [14]: > 50000 nM
- fold change (FC) (Hepatitis C virus [51]): 26.9
